Assays:
[1] = system: OVCAR-8; experiment: Cytotoxicity against human OVCAR8 cells at 10 uM assessed as cell growth relative to control; format: functional; conditions: read-out: Activity
[2] = system: BT-549; experiment: Cytotoxicity against human BT549 cells at 10 uM assessed as cell growth relative to control; format: functional; conditions: read-out: Activity
[3] = system: SNB-19; experiment: Cytotoxicity against human SNB19 cells at 10 uM assessed as cell growth relative to control; format: functional; conditions: read-out: Activity
[4] = system: UO-31; experiment: Cytotoxicity against human UO31 cells at 10 uM assessed as cell growth relative to control; format: functional; conditions: read-out: Activity
[5] = system: SK-MEL-28; experiment: Cytotoxicity against human SK-MEL-28 cells at 10 uM assessed as cell growth relative to control; format: functional; conditions: read-out: Activity
[6] = system: SW-620; experiment: Cytotoxicity against human SW620 cells at 10 uM assessed as cell growth relative to control; format: functional; conditions: read-out: Activity
[7] = system: SN12C; experiment: Cytotoxicity against human SN12C cells at 10 uM assessed as cell growth relative to control; format: functional; conditions: read-out: Activity
[8] = system: CCRF-CEM; experiment: Cytotoxicity against human CCRF-CEM cells at 10 uM assessed as cell growth relative to control; format: functional; conditions: read-out: Activity
[9] = system: K562; experiment: Cytotoxicity against human K562 cells at 10 uM assessed as cell growth relative to control; format: functional; conditions: read-out: Activity
[10] = system: MCF7; experiment: Cytotoxicity against human MCF7 cells at 10 uM assessed as cell growth relative to control; format: functional; conditions: read-out: Activity
[11] = system: A498; experiment: Cytotoxicity against human A498 cells at 10 uM assessed as cell growth relative to control; format: functional; conditions: read-out: Activity
[12] = system: COLO 205; experiment: Cytotoxicity against human COLO205 cells at 10 uM assessed as cell growth relative to control; format: functional; conditions: read-out: Activity
[13] = system: T47D; experiment: Cytotoxicity against human T47D cells at 10 uM assessed as cell growth relative to control; format: functional; conditions: read-out: Activity
[14] = system: HCT-116; experiment: Cytotoxicity against human HCT116 cells at 10 uM assessed as cell growth relative to control; format: functional; conditions: read-out: Activity
[15] = system: IGROV-1; experiment: Cytotoxicity against human IGROV1 cells at 10 uM assessed as cell growth relative to control; format: functional; conditions: read-out: Activity
[16] = system: HOP-92; experiment: Cytotoxicity against human HOP92 cells at 10 uM assessed as cell growth relative to control; format: functional; conditions: read-out: Activity
[17] = system: SF-268; experiment: Cytotoxicity against human SF268 cells at 10 uM assessed as cell growth relative to control; format: functional; conditions: read-out: Activity
[18] = system: M14; experiment: Cytotoxicity against human M14 cells at 10 uM assessed as cell growth relative to control; format: functional; conditions: read-out: Activity
[19] = system: U-251; experiment: Cytotoxicity against human U251 cells at 10 uM assessed as cell growth relative to control; format: functional; conditions: read-out: Activity
[20] = target: T1, Dual specificity mitogen-activated protein kinase kinase 5 (Homo sapiens) (UniProt Q13163); conditions: HEK293, at 10 µM;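 further: MEK5 activity stimulated by EGF, read out as phospho-ERK5 on Western blot after 1 h treatment, expressed relative to control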
T1 sequence (whole entry): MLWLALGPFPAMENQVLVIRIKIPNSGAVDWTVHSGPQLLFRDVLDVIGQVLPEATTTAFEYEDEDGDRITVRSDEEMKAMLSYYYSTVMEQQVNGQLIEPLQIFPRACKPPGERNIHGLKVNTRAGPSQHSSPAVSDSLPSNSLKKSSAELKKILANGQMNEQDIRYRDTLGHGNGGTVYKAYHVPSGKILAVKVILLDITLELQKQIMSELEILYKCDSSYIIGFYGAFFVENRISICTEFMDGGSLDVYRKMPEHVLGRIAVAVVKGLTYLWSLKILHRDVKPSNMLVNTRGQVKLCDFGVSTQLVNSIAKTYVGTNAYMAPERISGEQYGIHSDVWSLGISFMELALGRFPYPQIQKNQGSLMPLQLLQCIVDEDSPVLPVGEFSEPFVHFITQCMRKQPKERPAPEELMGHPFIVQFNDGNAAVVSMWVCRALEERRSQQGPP
Description: Inhibition of EGF-induced MEK5 activity in HEK293 cells assessed as phosphorylated ERK5 level at 10 uM after 1 hr by Western blotting relative to control

[21] = Cytotoxicity against human […] cells at 10 uM assessed as cell growth relative to control; format: functional; conditions: read-out: Activity
[22] = system: KM12; experiment: Cytotoxicity against human KM12 cells at 10 uM assessed as cell growth relative to control; format: functional; conditions: read-out: Activity
[23] = system: NCI-H226; experiment: Cytotoxicity against human NCI-H226 cells at 10 uM assessed as cell growth relative to control; format: functional; conditions: read-out: Activity
[24] = system: MDA-MB-231; experiment: Cytotoxicity against human MDA-MB-231 cells at 10 uM assessed as cell growth relative to control; format: functional; conditions: read-out: Activity
[25] = system: OVCAR-4; experiment: Cytotoxicity against human OVCAR4 cells at 10 uM assessed as cell growth relative to control; format: functional; conditions: read-out: Activity
[26] = system: UACC-62; experiment: Cytotoxicity against human UACC62 cells at 10 uM assessed as cell growth relative to control; format: functional; conditions: read-out: Activity
[27] = system: EKVX; experiment: Cytotoxicity against human EKVX cells at 10 uM assessed as cell growth relative to control; format: functional; conditions: read-out: Activity
[28] = system: MDA-MB-435; experiment: Cytotoxicity against human MDA-MB-435 cells at 10 uM assessed as cell growth relative to control; format: functional; conditions: read-out: Activity
[29] = system: OVCAR-5; experiment: Cytotoxicity against human OVCAR5 cells at 10 uM assessed as cell growth relative to control; format: functional; conditions: read-out: Activity
[30] = system: HL-60(TB); experiment: Cytotoxicity against human HL-60(TB) cells at 10 uM assessed as cell growth relative to control; format: functional; conditions: read-out: Activity
[31] = system: SK-OV-3; experiment: Cytotoxicity against human SKOV3 cells at 10 uM assessed as cell growth relative to control; format: functional; conditions: read-out: Activity
[32] = system: ACHN; experiment: Cytotoxicity against human ACHN cells at 10 uM assessed as cell growth relative to control; format: functional; conditions: read-out: Activity
[33] = system: RXF 393; experiment: Cytotoxicity against human RXF393 cells at 10 uM assessed as cell growth relative to control; format: functional; conditions: read-out: Activity
[34] = system: NCI/ADR-RES; experiment: Cytotoxicity against human NCI/ADR-RES cells at 10 uM assessed as cell growth relative to control; format: functional; conditions: read-out: Activity
[35] = system: NCI-H322M; experiment: Cytotoxicity against human NCI-H322M cells at 10 uM assessed as cell growth relative to control; format: functional; conditions: read-out: Activity
[36] = system: DU-145; experiment: Cytotoxicity against human DU145 cells at 10 uM assessed as cell growth relative to control; format: functional; conditions: read-out: Activity
[37] = system: LOX IMVI; experiment: Cytotoxicity against human LOXIMVI cells at 10 uM assessed as cell growth relative to control; format: functional; conditions: read-out: Activity
[38] = system: HOP-62; experiment: Cytotoxicity against human HOP62 cells at 10 uM assessed as cell growth relative to control; format: functional; conditions: read-out: Activity
[39] = system: HCT-15; experiment: Cytotoxicity against human HCT15 cells at 10 uM assessed as cell growth relative to control; format: functional; conditions: read-out: Activity
[40] = system: 786-0; experiment: Cytotoxicity against human 786-0 cells at 10 uM assessed as cell growth relative to control; format: functional; conditions: read-out: Activity
[41] = system: A549; experiment: Cytotoxicity against human A549 cells at 10 uM assessed as cell growth relative to control; format: functional; conditions: read-out: Activity
[42] = system: MDA-MB-468; experiment: Cytotoxicity against human MDA-MB-468 cells at 10 uM assessed as cell growth relative to control; format: functional; conditions: read-out: Activity
[43] = system: MOLT-4; experiment: Cytotoxicity against human MOLT4 cells at 10 uM assessed as cell growth relative to control; format: functional; conditions: read-out: Activity
[44] = system: SF-295; experiment: Cytotoxicity against human SF295 cells at 10 uM assessed as cell growth relative to control; format: functional; conditions: read-out: Activity
[45] = system: TK-10; experiment: Cytotoxicity against human TK10 cells at 10 uM assessed as cell growth relative to control; format: functional; conditions: read-out: Activity

COc1cc(NCc2ccccc2)c2ncn(C(C)C)c2c1 showed a growth at 10 µM [1] of 98.7%, a growth at 10 µM [2] of 55.6% and a growth at 10 µM [3] of 90.7%. It also gave a growth at 10 µM [4] of 83.2%, a growth at 10 µM [5] of 125% and a growth at 10 µM [6] of 146%. The growth at 10 µM [7] was 104%, the growth at 10 µM [8] was 93.9% and the growth at 10 µM [9] was 64.2%. The growth at 10 µM [10] was 5.8%, the growth at 10 µM [11] was 106% and the growth at 10 µM [12] was 118%. For the same compound, the growth at 10 µM [13] was 80.1%, the growth at 10 µM [14] was 103% and the growth at 10 µM [15] was 92.4%. For the same compound, the growth at 10 µM [16] was 64.5%, the growth at 10 µM [17] was 125% and the growth at 10 µM [18] was 108%. For the same compound, the growth at 10 µM [19] was 103%, the inhibition [20] was 85% and the growth at 10 µM [21] was 71.5%. The growth at 10 µM [22] was 104%, the growth at 10 µM [23] was 97.1% and the growth at 10 µM [24] was 111%. The growth at 10 µM [25] was 50.6%, the growth at 10 µM [26] was 97.3% and the growth at 10 µM [27] was 93.9%. It also gave a growth at 10 µM [28] of 122%, a growth at 10 µM [29] of 97.2% and a growth at 10 µM [30] of 50.3%. It also gave a growth at 10 µM [31] of 110%, a growth at 10 µM [32] of 106% and a growth at 10 µM [33] of 91.2%. It also gave a growth at 10 µM [34] of 96.7%, a growth at 10 µM [35] of 115% and a growth at 10 µM [36] of 136%. It also gave a growth at 10 µM [37] of 115%, a growth at 10 µM [38] of 101% and a growth at 10 µM [39] of 97.9%. For the same compound, the growth at 10 µM [40] was 96.5%, the growth at 10 µM [41] was 110% and the growth at 10 µM [42] was 36.5%. For the same compound, the growth at 10 µM [43] was 78.7%, the growth at 10 µM [44] was 138% and the growth at 10 µM [45] was 136%.

In the case of COCCCOc1cc(NCc2ccccc2)c2ncn(C(C)C)c2c1, the growth at 10 µM [1] is reported as 99.3%, the growth at 10 µM [2] is reported as 90.1% and the growth at 10 µM [3] is reported as 90.3%. For the same compound, the growth at 10 µM [4] was 79.9%, the growth at 10 µM [5] was 115% and the growth at 10 µM [6] was 101%. The growth at 10 µM [7] was 90.8%, the growth at 10 µM [8] was 86.8% and the growth at 10 µM [9] was 90.9%. The growth at 10 µM [10] was 93.2%, the growth at 10 µM [11] was 83.5% and the growth at 10 µM [12] was 100%. It also gave a growth at 10 µM [13] of 91.9%, a growth at 10 µM [14] of 100% and a growth at 10 µM [15] of 90.1%. For the same compound, the growth at 10 µM [16] was 90.9%, the growth at 10 µM [17] was 96.7% and the growth at 10 µM [18] was 104%. For the same compound, the growth at 10 µM [19] was 95.6%, the inhibition [20] was 51% and the growth at 10 µM [21] was 89.2%. For the same compound, the growth at 10 µM [22] was 100%, the growth at 10 µM [23] was 91.6% and the growth at 10 µM [24] was 102%. The growth at 10 µM [25] was 87.8%, the growth at 10 µM [26] was 91.9% and the growth at 10 µM [27] was 95.4%. For the same compound, the growth at 10 µM [28] was 110%, the growth at 10 µM [29] was 91.5% and the growth at 10 µM [30] was 100%. For the same compound, the growth at 10 µM [31] was 101%, the growth at 10 µM [32] was 95.3% and the growth at 10 µM [33] was 94.3%. The growth at 10 µM [34] was 85.3%, the growth at 10 µM [35] was 104% and the growth at 10 µM [36] was 99.2%. The growth at 10 µM [37] was 94.5%, the growth at 10 µM [38] was 85.7% and the growth at 10 µM [39] was 110%. It also gave a growth at 10 µM [40] of 95.7%, a growth at 10 µM [41] of 94% and a growth at 10 µM [42] of 104%. It also gave a growth at 10 µM [43] of 88.2%, a growth at 10 µM [44] of 97.4% and a growth at 10 µM [45] of 109%.
